Measurements taken from ChEMBL document CHEMBL1201862, “PubChem BioAssay data set” (2004).
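Growth conditions: 96-well plates. Treatment: test compound, 48 hours, 5 concentrations. Analysis: linear interpolation between bracketing concentrations; unreached endpoints set to highest concentration. The concentration for 50% growth inhibition is given as GI50.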 The source made the active and inactive calls. Rule as the data show it: active = GI50 up to about 1.1 µM and inactive = higher.

Tests used:
Assay in all cases: inhibition of tumour cell growth, NCI panel, 48 h
[1] = system: DMS-114
[2] = system: HOP-18
[3] = system: K562
[4] = system: M19-MEL
[5] = system: NCI-H226
[6] = system: SK-MEL-28
[7] = system: SNB-75
[8] = system: SNB-78
[9] = system: TK-10
[10] = system: U-251
[11] = system: UO-31
[12] = system: DMS-273
[13] = system: HL-60
[14] = system: HOP-62
[15] = system: KM-20L2

Measured: GI50

NC(CCc1ncc(C(=O)O)s1)C(=O)O (configuration not stated)
inactive: [1] > 100 µM | [2] > 100 µM | [3] > 100 µM | [4] > 100 µM | [5] > 100 µM | [6] > 100 µM | [7] > 100 µM | [8] > 100 µM | [9] > 100 µM | [10] > 100 µM | [11] > 100 µM

BrC1=CCC23CC=C(Br)[C@H]4CC2(COC3)C[C@@H]1O4 (some centres not stated)
inactive: [1] 28.4 µM | [12] 36.7 µM | [13] 6.41 µM | [14] > 100 µM | [3] 27.5 µM | [15] 59.3 µM | [4] > 100 µM | [5] 44.1 µM | [6] 22.6 µM | [7] 20.1 µM | [8] 35.2 µM | [9] 80.2 µM | [10] 79.3 µM | [11] 28.2 µM

COC(=O)/C=C1\CCC(C)O1 (configuration not stated)
inactive: [1] > 100 µM | [12] > 100 µM | [13] > 100 µM | [14] > 100 µM | [3] > 100 µM | [15] > 100 µM | [4] > 100 µM | [7] 39.5 µM | [8] > 100 µM | [9] > 100 µM | [10] > 100 µM | [11] > 100 µM

COc1ccc(/C=N/C23CC4CC(CC(C4)C2)C3)cc1
inactive: [1] > 100 µM | [12] > 10 µM | [13] > 100 µM | [14] > 100 µM | [3] > 100 µM | [15] > 100 µM | [4] > 10 µM | [5] > 100 µM | [6] > 100 µM | [7] > 100 µM | [8] > 100 µM | [9] > 100 µM | [10] > 100 µM | [11] > 100 µM

CC1(C)CCc2cc3c(cc2O1)OCCC3=O
inactive: [1] 70 µM | [13] 95.1 µM | [2] > 100 µM | [14] > 100 µM | [3] > 100 µM | [15] > 100 µM | [4] > 100 µM | [5] > 100 µM | [7] > 100 µM | [9] > 100 µM | [10] > 100 µM | [11] 94.2 µM

O=c1c2cccnc2ncn1CCN1CCCC1
inactive: [1] > 100 µM | [12] > 100 µM | [14] > 100 µM | [3] > 100 µM | [15] > 100 µM | [4] > 100 µM | [5] > 100 µM | [6] > 100 µM | [7] > 100 µM | [8] > 100 µM | [9] > 100 µM | [10] > 100 µM | [11] > 100 µM

O=C1Nc2ccc(Br)cc2/C1=N/Nc1ccc([N+](=O)[O-])cc1[N+](=O)[O-]
inactive: [13] 1.92 µM | [2] 1.12 µM | [14] 5.7 µM | [3] 3.05 µM | [15] 3.14 µM | [4] 3.54 µM | [6] 3.33 µM | [7] 4.1 µM | [8] 4.51 µM | [9] 17.1 µM | [10] 4.22 µM | [11] 2.48 µM

[N-]=[N+]=NC(c1cn(C2CC(O)C(CO)O2)c(=O)[nH]c1=O)C(Br)I (configuration not stated)
inactive: [1] > 100 µM | [12] > 100 µM | [13] > 100 µM | [14] > 100 µM | [3] > 100 µM | [15] > 100 µM | [4] > 100 µM | [5] > 100 µM | [6] > 100 µM | [7] > 100 µM | [8] > 100 µM | [9] > 100 µM | [10] > 100 µM | [11] > 100 µM

CCCCCCCCCCCc1noc2c1C(=O)C(O)CC2 (configuration not stated)
inactive: [12] 16.8 µM | [13] 23.9 µM | [14] 45.8 µM | [3] 17.2 µM | [15] 17.2 µM | [5] 16.1 µM | [6] 23.8 µM | [7] 24.1 µM | [8] 24.4 µM | [9] 56.6 µM | [10] 14.6 µM | [11] 23.3 µM

C1CCN2CC3CONC3C2C1 (configuration not stated)
inactive: [1] > 100 µM | [12] > 100 µM | [13] > 100 µM | [14] > 100 µM | [3] > 100 µM | [15] > 100 µM | [4] > 100 µM | [5] > 100 µM | [6] > 100 µM | [7] > 100 µM | [8] > 100 µM | [9] > 100 µM | [10] > 100 µM | [11] > 100 µM

C=C1C[C@]23C[C@@]1(O)CC[C@H]2[C@@]12C=C[C@H](O)[C@@](C)(C(=O)O1)[C@H]2[C@@H]3C(=O)O [GIBBERELLIN A3]
inactive: [1] > 100 µM | [12] > 100 µM | [13] > 100 µM | [14] > 100 µM | [3] > 100 µM | [15] > 100 µM | [4] > 100 µM | [5] > 100 µM | [6] > 100 µM | [7] > 100 µM | [8] > 100 µM | [9] > 100 µM | [10] > 100 µM | [11] > 100 µM
